Experimental data from patent US12065436B2, “Cardiac sarcomere inhibitors” (Cytokinetics, Inc., priority 2018, dated 2024).
Like-named read-outs stand apart in the source and are kept apart here.

Columns and labels:
[1] = molecular target: bovine cardiac myofibrils (full-length cardiac myosin ATPase in the native sarcomere) (Bos taurus (Bovine), UniProt Q9BE39); assay: Skinned bovine cardiac myofibril ATPase assay (PK/LDH-coupled); assay type: biochemical; details: Ca2+ activating to 75% of maximal rate; for CDMF75 IC15: concentration giving 15% inhibition; for IC50: read-out: CDMF75 IC50
bovine cardiac myofibrils (full-length cardiac myosin ATPase in the native sarcomere), sequence (Q9BE39 whole entry): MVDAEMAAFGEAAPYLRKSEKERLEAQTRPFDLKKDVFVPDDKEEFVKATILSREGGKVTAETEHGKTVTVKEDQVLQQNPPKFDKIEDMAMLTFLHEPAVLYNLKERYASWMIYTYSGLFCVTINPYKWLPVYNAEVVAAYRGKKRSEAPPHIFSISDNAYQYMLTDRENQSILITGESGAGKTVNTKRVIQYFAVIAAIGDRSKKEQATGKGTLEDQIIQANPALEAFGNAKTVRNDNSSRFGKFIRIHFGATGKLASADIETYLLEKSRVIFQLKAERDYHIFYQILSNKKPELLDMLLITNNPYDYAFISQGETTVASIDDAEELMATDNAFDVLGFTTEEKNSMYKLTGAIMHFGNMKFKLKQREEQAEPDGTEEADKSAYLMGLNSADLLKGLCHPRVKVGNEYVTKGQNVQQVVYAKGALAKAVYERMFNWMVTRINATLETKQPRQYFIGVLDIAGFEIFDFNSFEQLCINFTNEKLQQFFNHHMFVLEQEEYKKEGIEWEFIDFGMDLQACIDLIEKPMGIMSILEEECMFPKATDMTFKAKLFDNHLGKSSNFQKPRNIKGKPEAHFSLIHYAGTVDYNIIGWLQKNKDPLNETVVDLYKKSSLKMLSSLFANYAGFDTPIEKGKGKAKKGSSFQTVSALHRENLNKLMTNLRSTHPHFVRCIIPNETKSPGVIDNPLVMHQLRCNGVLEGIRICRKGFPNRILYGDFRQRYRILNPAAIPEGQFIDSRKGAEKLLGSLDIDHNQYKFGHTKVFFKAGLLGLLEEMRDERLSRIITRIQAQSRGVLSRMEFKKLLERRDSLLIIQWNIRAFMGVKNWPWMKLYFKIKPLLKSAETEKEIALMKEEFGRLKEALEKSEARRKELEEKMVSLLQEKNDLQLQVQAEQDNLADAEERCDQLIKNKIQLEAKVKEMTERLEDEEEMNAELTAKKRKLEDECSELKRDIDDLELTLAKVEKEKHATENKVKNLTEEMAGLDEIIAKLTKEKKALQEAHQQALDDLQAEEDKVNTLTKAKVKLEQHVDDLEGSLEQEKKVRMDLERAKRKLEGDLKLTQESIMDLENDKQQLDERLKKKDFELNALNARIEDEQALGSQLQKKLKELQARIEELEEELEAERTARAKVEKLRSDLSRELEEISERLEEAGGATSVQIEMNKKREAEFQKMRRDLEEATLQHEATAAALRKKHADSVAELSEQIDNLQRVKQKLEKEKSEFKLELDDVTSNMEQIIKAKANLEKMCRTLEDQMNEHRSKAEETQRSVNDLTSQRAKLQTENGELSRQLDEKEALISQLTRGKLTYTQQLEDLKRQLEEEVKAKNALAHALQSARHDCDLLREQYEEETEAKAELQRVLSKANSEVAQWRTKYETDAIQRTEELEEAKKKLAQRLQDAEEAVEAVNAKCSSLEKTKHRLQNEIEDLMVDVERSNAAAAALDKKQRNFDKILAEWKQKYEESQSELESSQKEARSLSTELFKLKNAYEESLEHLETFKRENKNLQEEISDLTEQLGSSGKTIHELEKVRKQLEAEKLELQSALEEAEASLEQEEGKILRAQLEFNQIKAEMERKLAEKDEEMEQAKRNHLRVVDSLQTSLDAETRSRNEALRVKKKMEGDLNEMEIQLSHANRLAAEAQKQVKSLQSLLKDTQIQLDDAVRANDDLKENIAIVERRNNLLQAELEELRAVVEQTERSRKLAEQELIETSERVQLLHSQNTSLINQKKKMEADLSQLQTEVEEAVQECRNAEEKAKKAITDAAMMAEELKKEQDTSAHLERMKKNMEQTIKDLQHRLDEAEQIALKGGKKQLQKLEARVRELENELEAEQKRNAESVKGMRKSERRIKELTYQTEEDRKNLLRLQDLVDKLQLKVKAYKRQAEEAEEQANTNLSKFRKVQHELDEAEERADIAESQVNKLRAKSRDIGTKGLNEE
bovine cardiac myofibrils (full-length cardiac myosin ATPase in the native sarcomere), sequence (P85100 whole entry partner): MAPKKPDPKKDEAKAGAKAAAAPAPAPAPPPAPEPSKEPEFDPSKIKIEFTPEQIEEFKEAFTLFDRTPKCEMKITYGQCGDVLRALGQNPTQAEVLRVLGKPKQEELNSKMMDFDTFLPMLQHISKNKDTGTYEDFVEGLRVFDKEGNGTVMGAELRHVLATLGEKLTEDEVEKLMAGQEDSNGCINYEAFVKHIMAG
bovine cardiac myofibrils (full-length cardiac myosin ATPase in the native sarcomere), sequence (Q3SZE5 whole entry partner): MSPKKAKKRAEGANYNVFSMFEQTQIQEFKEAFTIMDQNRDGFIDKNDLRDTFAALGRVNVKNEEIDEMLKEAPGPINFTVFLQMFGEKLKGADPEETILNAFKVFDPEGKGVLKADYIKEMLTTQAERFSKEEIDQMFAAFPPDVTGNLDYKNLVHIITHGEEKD
How it was run: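 Triton-skinned bovine left-ventricle myofibrils (1 mg/mL) in PM 12 buffer (12 mM PIPES, 2 mM MgCl2, pH 6.8) with 50 μM ATP, 0.6 mM EGTA and CaCl2 set for 50% or 75% activation. Steady-state ATPase inhibition followed by PK/LDH-coupled NADH oxidation at 340 nm.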

[2] = system: rat cardiac contractility (left ventricle fractional shortening); assay: Echocardiography of acute effect on rat cardiac contractility, oral gavage; assay type: in vivo, Sprague Dawley rats; details: for inhibition in vivo at 6 mg/kg: oral gavage
Method: Assessment of in vivo cardiac function by echocardiography was performed in male Sprague Dawley rats under isoflurane (1-3%) anesthesia. 2-D M-mode images of the left ventricle were acquired in the parasternal long-axis view before, during, and after administration of compounds by continuous IV infusion or oral gavage. In vivo fractional shortening was determined by M-mode image analysis with the following calculation: ((End diastolic diameter−end systolic diameter)/end diastolic diameter×100). For continuous IV infusion experiments, three pre-dose baseline M-mode images were taken at 1 minute intervals prior to infusion of compound. Compounds were formulated in 50% Propylene Glycol (PG): 16% Captisol: 10% dimethylacetamide (DMA) and delivered via a jugular vein catheter at the rate of 1 mL/kg/h. During infusion, M-mode images were taken at 5 minute intervals. The infusion stopped when fractional shortening reached up to a 60% reduction from baseline. Blood samples were taken to determine the plasma concentration of the compounds. Data was reported as an estimated IC50 value, which is the concentration at which fractional shortening is 50% of the pre-dose baseline contractility.
For oral dosing studies, three pre-dose baseline M-Mode images were taken at 1 minute intervals prior to compound administration. Compounds were formulated in a 0.5% hydroxypropyl methylcellulose 2910 (HPMC 2910): 0.1% Tween 80 suspension and delivered as a single dose (5 mL/kg) by oral gavage. Rats were lightly anesthetized for M-Mode echocardiography measurements at select time points over a 24 hour period. Different dose levels were evaluated for each compound. The compound effect on cardiac fractional shortening at the highest dose evaluated is presented in Table D as a percent reduction of baseline fractional shortening (=100%).
Concurrent with echocardiography measurements, blood samples were taken to determine the corresponding compound plasma concentration.

Structure (SMILES) | CDMF75 IC15 [1] [µM] | IC50 [1] [µM] | IC50 ([2]; Rattus norvegicus, oral dosing, plasma concentration at which fractional shortening is 50% of pre-dose baseline, estimated) [µM] | inhibition in vivo at 6 mg/kg ([2]; Rattus norvegicus, 1 h, 1-2 h post dose, read-out: FS (% reduction from baseline) at 1-2 h post dose (Mean ± S.D.)) [%] | inhibition in vivo at 6 mg/kg ([2]; Rattus norvegicus, 4 h post dose, read-out: FS (% reduction from baseline) at 4 h post dose (Mean ± S.D.)) [%] | IC10 ([2]; oral dosing, plasma concentration at which, estimated) [µM]
O=C(N[C@@H]1CCc2cc(-c3noc(C4CC4)n3)ccc21)c1cn[nH]c1 [Compound 489, (R)-N-(5-(5-cyclopropyl-1,2,4-oxadiazol-3-yl)-2,3-dihydro-1H-inden-1-yl)-1H-pyrazole-4-carboxamide] | 0.6 | 2.2 | 2.4 | 65 ± 6 | 35 ± 6 | 0.7
CCc1nc(-c2ccc3c(c2)CC[C@H]3NC(=O)N2CC[C@H](O)C2)no1 [Compound 723, (S)-N-((R)-5-(5-ethyl-1,2,4-oxadiazol-3-yl)-2,3-dihydro-1H-inden-1-yl)-3-hydroxypyrrolidine-1-carboxamide] | 4.4 | 20.3 |  |  |  | 
CCc1nc(-c2ccc3c(c2)CC[C@H]3NC(=O)N2CC[C@@H](O)C2)no1 [Compound 724, (R)-N-((R)-5-(5-ethyl-1,2,4-oxadiazol-3-yl)-2,3-dihydro-1H-inden-1-yl)-3-hydroxypyrrolidine-1-carboxamide] | 1.7 | 6.8 |  |  |  | 
Cc1nc(-c2ccc3c(c2)OC[C@H]3NC(=O)c2cccc([C@H](C)O)c2)no1 [Compound 734, 3-((S)-1-hydroxyethyl)-N-((S)-6-(5-methyl-1,2,4-oxadiazol-3-yl)-2,3-dihydrobenzofuran-3-yl)benzamide] | 0.8 | 4.1 |  |  |  | 
Cc1nc(-c2ccc3c(c2)OC[C@H]3NC(=O)c2cccc([C@@H](C)O)c2)no1 [Compound 735, 3-((R)-1-hydroxyethyl)-N-((S)-6-(5-methyl-1,2,4-oxadiazol-3-yl)-2,3-dihydrobenzofuran-3-yl)benzamide] | 1.6 | 8.5 |  |  |  | 
CCc1nc(-c2ccc3c(c2)OC[C@H]3NC(=O)N2CC[C@H](O)C2)no1 [Compound 739, (S)-N-((S)-6-(5-ethyl-1,2,4-oxadiazol-3-yl)-2,3-dihydrobenzofuran-3-yl)-3-hydroxypyrrolidine-1-carboxamide] | 5.4 | 24.2 |  |  |  | 
CCc1nc(-c2ccc3c(c2)OC[C@H]3NC(=O)N2CC[C@@H](O)C2)no1 [Compound 740, (R)-N-((S)-6-(5-ethyl-1,2,4-oxadiazol-3-yl)-2,3-dihydrobenzofuran-3-yl)-3-hydroxypyrrolidine-1-carboxamide] | 1.9 | 6.9 |  |  |  | 
CCc1nc(-c2ccc3c(c2)OC[C@H]3NC(=O)N2CC(O)C2)no1 [Compound 741, (S)-N-(6-(5-ethyl-1,2,4-oxadiazol-3-yl)-2,3-dihydrobenzofuran-3-yl)-3-hydroxyazetidine-1-carboxamide] | 1.9 | 10.5 |  |  |  | 
CCc1nc(-c2ccc3c(c2)OC[C@H]3NC(=O)N2CC[C@H](F)C2)no1 [Compound 742, (S)-N-((S)-6-(5-ethyl-1,2,4-oxadiazol-3-yl)-2,3-dihydrobenzofuran-3-yl)-3-fluoropyrrolidine-1-carboxamide] | 3.4 | 16.6 |  |  |  | 
CCc1nc(-c2ccc3c(c2)OC[C@H]3NC(=O)N2CC[C@@H](F)C2)no1 [Compound 743, (R)-N-((S)-6-(5-ethyl-1,2,4-oxadiazol-3-yl)-2,3-dihydrobenzofuran-3-yl)-3-fluoropyrrolidine-1-carboxamide] | 7.4 | 36.7 |  |  |  | 
CCc1nc(-c2ccc3c(c2)OC[C@H]3NC(=O)OCCO)no1 [Compound 744, 2-hydroxyethyl N-[(3S)-6-(5-ethyl-1,2,4-oxadiazol-3-yl)-2,3-dihydro-1-benzofuran-3-yl]carbamate] | 0.3 | 1.3 |  |  |  | 
CCc1nc(-c2ccc3c(c2)OC[C@H]3NC(=O)NCCO)no1 [Compound 745, (S)-1-(6-(5-ethyl-1,2,4-oxadiazol-3-yl)-2,3-dihydrobenzofuran-3-yl)-3-(2-hydroxyethyl)urea] | 0.8 | 3.8 |  |  |  | 
CCc1nc(-c2ccc3c(c2)OC[C@H]3NC(=O)N(C)CCO)no1 [Compound 746, (S)-3-(6-(5-ethyl-1,2,4-oxadiazol-3-yl)-2,3-dihydrobenzofuran-3-yl)-1-(2-hydroxyethyl)-1-methylurea] | 4.6 | 21.3 |  |  |  | 

Continued, in another order:

CDMF75 IC15 [1] [µM] | IC50 [1] [µM] | IC50 ([2]; Rattus norvegicus, oral dosing, plasma concentration at which fractional shortening is 50% of pre-dose baseline, estimated) [µM] | Structure (SMILES) | inhibition in vivo at 6 mg/kg ([2]; Rattus norvegicus, 1 h, 1-2 h post dose, read-out: FS (% reduction from baseline) at 1-2 h post dose (Mean ± S.D.)) [%] | inhibition in vivo at 6 mg/kg ([2]; Rattus norvegicus, 4 h post dose, read-out: FS (% reduction from baseline) at 4 h post dose (Mean ± S.D.)) [%] | IC10 ([2]; oral dosing, plasma concentration at which, estimated) [µM]
1.5 | 6.7 |  | CCc1nc(-c2ccc3c(c2)CC[C@H]3NC(=O)c2cc(C(C)O)ccn2)no1 (stereo partly drawn) [Compound 721, N-((R)-5-(5-ethyl-1,2,4-oxadiazol-3-yl)-2,3-dihydro-1H-inden-1-yl)-4-(1-hydroxyethyl)picolinamide] |  |  | 
1.4 | 5.6 |  | COCc1nc(-c2ccc3c(c2)CC[C@H]3NC(=O)c2cccc(C(C)O)c2)no1 (stereo partly drawn) [Compound 722, 3-(1-hydroxyethyl)-N-((R)-5-(5-(methoxymethyl)-1,2,4-oxadiazol-3-yl)-2,3-dihydro-1H-inden-1-yl)benzamide] |  |  | 
0.6 | 2.9 |  | Cc1nc(-c2ccc3c(c2)CC[C@H]3NC(=O)c2cccc([C@H](C)O)c2)no1 [Compound 725, 3-((S)-1-hydroxyethyl)-N-((R)-5-(5-methyl-1,2,4-oxadiazol-3-yl)-2,3-dihydro-1H-inden-1-yl)benzamide] |  |  | 
1.2 | 6 |  | Cc1nc(-c2ccc3c(c2)CC[C@H]3NC(=O)c2cccc([C@@H](C)O)c2)no1 [Compound 726, 3-((R)-1-hydroxyethyl)-N-((R)-5-(5-methyl-1,2,4-oxadiazol-3-yl)-2,3-dihydro-1H-inden-1-yl)benzamide] |  |  | 
0.8 | 3.8 |  | COCc1nc(-c2ccc3c(c2)CC[C@H]3NC(=O)c2cccc([C@H](C)O)c2)no1 [Compound 728, 3-((S)-1-hydroxyethyl)-N-((R)-5-(5-(methoxymethyl)-1,2,4-oxadiazol-3-yl)-2,3-dihydro-1H-inden-1-yl)benzamide] |  |  | 
2.6 | 13.2 |  | COCc1nc(-c2ccc3c(c2)CC[C@H]3NC(=O)c2cccc([C@@H](C)O)c2)no1 [Compound 729, 3-((R)-1-hydroxyethyl)-N-((R)-5-(5-(methoxymethyl)-1,2,4-oxadiazol-3-yl)-2,3-dihydro-1H-inden-1-yl)benzamide] |  |  | 
0.7 | 3.2 |  | Cc1nc(-c2ccc3c(c2)CC[C@H]3NC(=O)c2ccnc(C(F)F)c2)no1 [Compound 730, (R)-2-(difluoromethyl)-N-(5-(5-methyl-1,2,4-oxadiazol-3-yl)-2,3-dihydro-1H-inden-1-yl)isonicotinamide] |  |  | 
1.1 | 5.3 |  | COCc1nc(-c2ccc3c(c2)CC[C@H]3NC(=O)c2ccnc(C(F)F)c2)no1 [Compound 731, (R)-2-(difluoromethyl)-N-(5-(5-(methoxymethyl)-1,2,4-oxadiazol-3-yl)-2,3-dihydro-1H-inden-1-yl)isonicotinamide] |  |  | 
0.7 | 3.4 |  | Cc1nc(-c2ccc3c(c2)CC[C@H]3NC(=O)c2cc(C(F)F)ccn2)no1 [Compound 732, (R)-4-(difluoromethyl)-N-(5-(5-methyl-1,2,4-oxadiazol-3-yl)-2,3-dihydro-1H-inden-1-yl)picolinamide] |  |  | 
1.5 | 8.9 |  | COCc1nc(-c2ccc3c(c2)CC[C@H]3NC(=O)c2cc(C(F)F)ccn2)no1 [Compound 733, (R)-4-(difluoromethyl)-N-(5-(5-(methoxymethyl)-1,2,4-oxadiazol-3-yl)-2,3-dihydro-1H-inden-1-yl)picolinamide] |  |  | 
1.2 | 5.4 |  | COCc1nc(-c2ccc3c(c2)OC[C@H]3NC(=O)c2cccc([C@H](C)O)c2)no1 [Compound 736, 3-((S)-1-hydroxyethyl)-N-((S)-6-(5-(methoxymethyl)-1,2,4-oxadiazol-3-yl)-2,3-dihydrobenzofuran-3-yl)benzamide] |  |  | 
2.4 | 14.9 |  | COCc1nc(-c2ccc3c(c2)OC[C@H]3NC(=O)c2cccc([C@@H](C)O)c2)no1 [Compound 737, 3-((R)-1-hydroxyethyl)-N-((S)-6-(5-(methoxymethyl)-1,2,4-oxadiazol-3-yl)-2,3-dihydrobenzofuran-3-yl)benzamide] |  |  | 
2.1 | 9.5 |  | Cc1nc(-c2ccc3c(c2)OC[C@H]3NC(=O)c2ccnc(C(C)O)c2)no1 (stereo partly drawn) [Compound 738, 2-(1-hydroxyethyl)-N-((S)-6-(5-methyl-1,2,4-oxadiazol-3-yl)-2,3-dihydrobenzofuran-3-yl)isonicotinamide] |  |  | 
